Experimental data published in PMC12349723, “Computationally accelerated identification of P-glycoprotein inhibitors” (PLOS One, 2025).
“And” between values parts separate entries of the source, which are not always exact repeats. Equal values may be shown once.

What was measured:
[1] = system: A2780 cells; experiment: MTT viability assay, parental A2780 cells, with or without PTX; type: cell-based, human; conditions: for Mean % Survival / % Survival (individual sample): A2780 cells; for % Survival (individual sample): single samples
Description: The chemotherapeutic sensitive DU145 human prostate cancer cells and the multidrug resistant sub-line, DU145-TXR, were generous gifts from Dr. Evan Keller (University of Michigan, Ann Arbor, MI). The MDR, P-gp overexpressing DU145-TXR cells were maintained under positive selection pressure by supplementing complete medium with 10 nM paclitaxel (Acros Organics, NJ). In addition to the aforementioned cell lines, the chemotherapeutic sensitive A2780 ovarian cancer cells (93112519, Sigma) and the multidrug resistant A2780-ADR (93112520, Sigma) were maintained in complete RPMI media consisting of RPMI-1640 with L-glutamine, 10% fetal bovine serum (FBS; Corning), 100 U/mL penicillin and 100 μg/mL streptomycin in a humidified incubator at 37 °C and 5% CO2. The MDR, P-gp overexpressing A2780-ADR cell line was maintained under positive selection pressure by supplementing complete medium with 100 nM doxorubicin (Fisher Scientific, NJ). The non-cancerous HFL1 (human lung fibroblast) cell line cell line was a generous gift from Dr. Robert Harrod (Southern Methodist University, Dallas, TX) and was maintained in complete F12K media consisting of F12K with 10% fetal bovine serum, 100 U/mL penicillin, and 100 µg/mL streptomycin (Gibco). Flasks and 96 well plates that were used with the non-cancerous line HFL1 were pre-treated with 0.1 mg/ml Collagen Type 1 (Gibco) and rinsed with PBS (Fisher).
Culture of the DU145, DU145-TXR, and HFL1 cell lines was performed as described in [8]. Culture of the A2780 and A2780-ADR cell lines was performed as described in [9]. MTT assays were performed as described in [8] with minor modifications. LC-MS/MS accumulation assays were performed as described in {Nanayakkara, 2018 #173} [9] with some modifications. […] The inhibitor concentration was lowered to 15 µM here, as the goal of the study was to identify compounds that were effective in reversing MDR at low concentrations, and to determine if the expanded virtual-assisted methods improved on our first-draft attempt. Compounds 56–98 were pre-screened using Resazurin cell viability assays: cells were incubated with 15 µM compound with or without 500 nM PTX for 48 hours, after which cell survival was assessed similar to [39]. Data represent the mean of two separate experiments, with n = 3 samples per experiment (n = 6 total) (S4 Table). The top performing compounds from this initial screen were re-tested with MTT viability assays against DU145-TXR cells, as described below.
MTT assays measure the reduction of yellow, water soluble 3-(4,5-dimethylthiazol-2-yl)-2,5-diphenyltetrazolium bromide (MTT) to blue, insoluble formazan crystals by cellular reductase processes in living cells. Cells were trypsinized from monolayers and seeded in complete medium in 96 well plates. Cancerous cell lines (DU145, DU145-TXR, A2780, A2780-ADR) were seeded at 3,000 cells per well in complete RPMI medium. The non-cancerous HFL1 line was seeded at 4,000 cells per well in complete F12K medium, in collagen-treated plates (Collagen Type 1, Gibco). Cells were incubated with experimental compounds for 48 hours at 37 °C and 5% CO2 in a humidified incubator. At 48 hours, MTT was added (20 µL/well of 5 mg/mL MTT in PBS) to each well. After incubation for 4 hours, the media was removed, and the formazan crystals were dissolved in 100 µL DMSO per well. Plates containing the semi-adherent A2780 or A2780-ADR lines were spun at 1400 rpm for 3 minutes prior to aspiration of media, and the addition of DMSO. Plates were shaken for 10 minutes at 500 rpm on an Orbital shaker (LabDoctor from MidSci, St Louis, MO). The absorbance was measured at 570 nm using a Bio-Tek Cytation 5 (Bio-Tek, Winooski, VT). The measured absorbance value was correlated with the number of metabolically active cells in that well, corrected for absorbance of media. […]

[2] = target: T1, P-gp (Homo sapiens, UniProt P08183); experiment: LC-MS/MS intracellular accumulation assay with or without tariquidar (P-gp transport substrate test) in DU145-TXR cells; type: in vitro ADME; conditions: for Intracellular accumulation (normalized ratio of compound to internal standard), Trial 1, + TQR / Intracellular accumulation (normalized ratio of compound to internal standard), Trial 2, + TQR / Intracellular accumulation (normalized ratio of compound to internal standard), Trial 1, - TQR / Intracellular accumulation (normalized ratio of compound to internal standard), Trial 2, - TQR: 5 µM compound, mean ± SD, triplicate; for Intracellular accumulation (normalized ratio of compound to internal standard), Trial 1, + TQR / Intracellular accumulation (normalized ratio of compound to internal standard), Trial 2, + TQR: with 500 nM tariquidar; for Intracellular accumulation (normalized ratio of compound to internal standard), Trial 1, - TQR / Intracellular accumulation (normalized ratio of compound to internal standard), Trial 2, - TQR: without tariquidar; for P (- TQR vs + TQR), Trial 1 / P (- TQR vs + TQR), Trial 2: Student's T test of the mean
T1 construct: The MDR, P-gp overexpressing DU145-TXR cells were maintained under positive selection pressure; endogenous in cells; host or cells: DU145-TXR (paclitaxel-resistant sub-line of DU145 human prostate cancer cells)
Description: DU145-TXR cells were seeded at 350,000 cells per well in 6-well plates in complete RPMI medium. […] A full sample of DAU was also prepared for quantitative analysis. […] Media was removed with a glass vacuum aspirator. Cells were re-suspended and washed in 2mL of ice-cold Hank’s Balanced Salt Solution (HBSS, Gibco), and spun again at 2400 rpm. Cell lysates were diluted in 600 µL of ice-cold HBSS, flash-frozen in liquid nitrogen, and stored at −80 °C until analysis. LC-MS/MS intracellular accumulation assays were performed in collaboration with the Pharmacology Core at the University of Texas Southwestern Medical Center (UTSW). […] This method allowed us to quantify the change – if any – in the relative amount of compound present in the samples when TQR was added. An increase in the relative amount of compound indicates enhanced intracellular retention that compound. […] The “Internal Standard” (IS) is a known substance added in a constant amount to each sample. The “Peak Area”, expressed as “counts”, describes the number of MS/MS spectra from the experimental compound and serves as a measure of its relative abundance. […] These values allow a comparison of the relative abundance of compound between the “- TQR” and “+ TQR” samples, and to test for statistically significant differences. LC-MS/MS quantification was performed as follows. Cell lysate was aliquoted into Eppendorf tubes. In contrast to [9], blank cell lysates were not spiked with varying concentrations of each compound to create a standard curve, since compound amounts were normalized to abundance of the internal standard. […] The supernatant was then transferred to an HPCL vial, and subsequently analyzed using LC-MS/MS using a Sciex 4000QTRAP mass spectrometer coupled to a Shimadzu Prominence LC. […] The column flow rate was 1.5 ml/min using an Agilent C18 XDB, 5 micron packing 50 × 4.6 mm column. […] A BSA standard curve was then prepared in water and mixed using the same ratio. […] The ratio of Analyte to Internal Standard was normalized to the lysate content for each individual sample. […] Statistical significance was determined using a Student’s T Test in GraphPad Prism. We aimed to identify P-gp inhibitors that are not transport substrates of the pump itself. […] To test these predictions in vitro, liquid chromatography with tandem mass spectrometry (LC-MS/MS) was used to assess the intracellular accumulation of experimental compounds as described in [9]. […] The relative intracellular accumulation of each experimental compound was then assessed using LC-MS/MS. […] The P-gp substrate and chemotherapeutic daunorubicin (DAU) was used as a positive control for P-gp-mediated transport.

[3] = 15 µM compound + 500 nM PTX, mean of 8 or 12 samples
[4] = Homo sapiens, A2780, A2780 cells, 15 µM compound alone, mean of 8 or 12 samples, read-out: Mean % Survival
[5] = significant difference = likely P-gp transport substrate
[6] = 1 µM compound + 500 nM PTX, mean of 12 samples

T1 sequence (P08183 whole entry): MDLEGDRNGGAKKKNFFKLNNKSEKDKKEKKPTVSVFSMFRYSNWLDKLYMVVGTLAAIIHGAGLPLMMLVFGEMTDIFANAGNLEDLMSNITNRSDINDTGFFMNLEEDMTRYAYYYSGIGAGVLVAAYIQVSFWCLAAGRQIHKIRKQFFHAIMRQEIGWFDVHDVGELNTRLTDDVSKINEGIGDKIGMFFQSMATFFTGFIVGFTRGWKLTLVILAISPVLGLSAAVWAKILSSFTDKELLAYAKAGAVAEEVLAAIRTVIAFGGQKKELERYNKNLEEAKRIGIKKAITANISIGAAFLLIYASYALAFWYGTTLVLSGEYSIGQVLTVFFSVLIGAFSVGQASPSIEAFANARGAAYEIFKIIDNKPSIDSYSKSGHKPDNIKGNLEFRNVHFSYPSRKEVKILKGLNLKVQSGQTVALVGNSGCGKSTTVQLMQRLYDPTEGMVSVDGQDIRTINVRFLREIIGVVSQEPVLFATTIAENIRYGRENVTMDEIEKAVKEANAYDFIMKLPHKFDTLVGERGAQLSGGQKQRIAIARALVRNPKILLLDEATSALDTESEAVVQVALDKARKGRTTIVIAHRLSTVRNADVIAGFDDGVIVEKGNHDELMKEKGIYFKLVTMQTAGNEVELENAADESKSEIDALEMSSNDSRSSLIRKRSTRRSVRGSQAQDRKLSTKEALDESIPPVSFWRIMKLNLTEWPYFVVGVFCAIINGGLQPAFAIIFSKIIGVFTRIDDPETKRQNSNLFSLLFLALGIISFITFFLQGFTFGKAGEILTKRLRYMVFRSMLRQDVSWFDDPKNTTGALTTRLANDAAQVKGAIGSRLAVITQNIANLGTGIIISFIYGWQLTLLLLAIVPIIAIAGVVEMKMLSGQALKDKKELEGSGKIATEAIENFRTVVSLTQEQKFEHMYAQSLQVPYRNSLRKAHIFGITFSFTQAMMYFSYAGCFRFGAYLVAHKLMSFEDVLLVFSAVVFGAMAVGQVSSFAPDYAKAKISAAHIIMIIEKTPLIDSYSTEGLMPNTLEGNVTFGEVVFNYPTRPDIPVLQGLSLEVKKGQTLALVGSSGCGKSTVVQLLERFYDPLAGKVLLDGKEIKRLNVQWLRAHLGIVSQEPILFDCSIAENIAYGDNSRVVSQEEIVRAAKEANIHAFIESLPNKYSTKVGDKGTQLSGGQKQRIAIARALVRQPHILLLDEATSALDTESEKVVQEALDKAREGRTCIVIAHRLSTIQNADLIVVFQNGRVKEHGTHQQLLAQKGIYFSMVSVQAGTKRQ

| SMILES | Mean % Survival [1, 3] [%] | % Survival (individual sample) ([1]; 15 µM compound + 500 nM PTX) | % Survival (individual sample) ([1]; 15 µM compound alone) [%] | viability at 15 µM [1, 4] [%] | Intracellular accumulation (normalized ratio of compound to internal standard), Trial 1, + TQR ([2]; DU145-TXR, 2.5 h) | Intracellular accumulation (normalized ratio of compound to internal standard), Trial 2, + TQR ([2]; DU145-TXR, 2.5 h) | Intracellular accumulation (normalized ratio of compound to internal standard), Trial 1, - TQR ([2]; DU145-TXR, 2.5 h) | Intracellular accumulation (normalized ratio of compound to internal standard), Trial 2, - TQR ([2]; DU145-TXR, 2.5 h) | P (- TQR vs + TQR), Trial 1 [2] | P (- TQR vs + TQR), Trial 2 [2] | Mean % Survival [1, 6] [%] | also measured |
| --- | --- | --- | --- | --- | --- | --- | --- | --- | --- | --- | --- | --- |
| O=C(c1nc(-c2ccc3cc[nH]c3c2)no1)N1CCN(c2nsc3ccccc23)CC1 [Compound 70, O=C(N1CCN(CC1)c1nsc2ccccc12)c1nc(no1)-c1ccc2cc[nH]c2c1] | 22.6 | 14% | 88 | 89.4 | 0.93 ± 0.07 | 0.55 ± 0.15 | 0.93 ± 0.15 | 0.56 ± 0.11 | > 1 | 0.9 | – | Increase of PTX toxicity against parental A2780 cells ([1]; 15 µM compound with or without 500 nM PTX, 48 h, MTT): did not greatly increase the toxicity of PTX against the parental A2780 cells; P-gp transport substrate assessment ([2]; DU145-TXR, 5 µM compound with or without 500 nM tariquidar, 2.5 h, LC-MS/MS): unlikely to be transport substrates of P-gp; Significance of accumulation with tariquidar, Trial 1 [2, 5]: N.S. (P > 0.05 = not significant (N.S.)); Significance of accumulation with tariquidar, Trial 2 [2, 5]: N.S. (P > 0.05 = not significant (N.S.)) |
| COc1ccc(OC)c(NC(=O)c2nnn(-c3ccc4noc(-c5ccccc5)c4c3)c2C)c1 [Compound 71, COc1ccc(OC)c(NC(=O)c2nnn(c2C)-c2ccc3noc(-c4ccccc4)c3c2)c1] | – | – | – | – | 0.067 ± 0.005 | 0.091 ± 0.043 | 0.085 ± 0.013 | 0.071 ± 0.009 | 0.09 | 0.5 | – | – |
| NS(=O)(=O)c1cccc(NC(=O)CSc2nnnn2C2CC2)c1 [Compound 89, NS(=O)(=O)c1cccc(NC(=O)CSc2nnnn2C2CC2)c1] | 10.3 | 8% and 12% | 96 | 87.9 | – | – | – | – | – | – | – | – |
| COc1ccc2c3c([nH]c2c1)[C@H](CC(C)C)N1C(=O)[C@H](CCC(=O)OC(C)(C)C)NC(=O)[C@@H]1C3 [Ko143, reference compound] | – | – | – | – | – | – | – | – | – | – | 12.8 | % Survival (individual sample) ([1]; 1 µM compound + 500 nM PTX): 16% and 15% and 9% and 49% and 7% and 8% and 10%; % Survival (individual sample) ([1]; 1 µM compound alone): 88% and 85% and 84% and 87% and 89% and 40% and 99% and 90% and 97% and 92%; Mean % Survival ([1]; mean of 12 samples): 85.3% |
| COc1cc2c(cc1OC)CN(CCc1ccc(NC(=O)c3cc(OC)c(OC)cc3NC(=O)c3cnc4ccccc4c3)cc1)CC2 [Tariquidar, reference compound] | – | – | – | – | – | – | – | – | – | – | 17.8 | % Survival (individual sample) ([1]; 1 µM compound + 500 nM PTX, listed as TQR): 12%; viability at 1 µM ([1]; Homo sapiens, A2780, A2780 cells, 1 µM compound alone, mean of 12 samples, read-out: Mean % Survival): 106% |
